Measurements taken from PubChem BioAssay (NCI).
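Five compound concentrations were applied to cells in 96-well plates for 48 hours; endpoints were derived by simple linear interpolation of the resulting dose-response curve. Here, GI50 denotes the concentration required for 50% inhibition of growth. TGI: total growth inhibition.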

Assays:
Assay in all cases: NCI-60 cell line screen, 48 h
[1] = system: IGROV1 ovarian
[2] = system: SW-620 colon
[3] = system: T-47D breast
[4] = system: UACC-257 melanoma
[5] = system: CAKI-1 renal
[6] = system: NCI-H522 lung
[7] = system: SNB-19 CNS
[8] = system: HCT-15 colon
[9] = system: MCF7 breast
[10] = system: HT29 colon
[11] = system: SN12C renal
[12] = system: OVCAR-4 ovarian
[13] = system: UO-31 renal
[14] = system: U251 CNS
[15] = system: SF-268 CNS
[16] = system: UACC-62 melanoma
[17] = system: SR leukemia
[18] = system: 786-0 renal
[19] = system: ACHN renal
[20] = system: A549 NSCLC
[21] = system: HCT-116 colon
[22] = system: SK-MEL-2 melanoma
[23] = system: CCRF-CEM leukemia
[24] = system: MDA-MB-468 breast
[25] = system: HOP-92 NSCLC
[26] = system: PC-3 prostate
[27] = system: HCC-2998 colon
[28] = system: A498 renal
[29] = system: MALME-3M melanoma
[30] = system: NCI-H226 lung
[31] = system: COLO 205 colon
[32] = system: SK-MEL-28 melanoma
[33] = system: OVCAR-3 ovarian
[34] = system: SK-MEL-5 melanoma
[35] = system: NCI-H460 lung
[36] = system: MOLT-4 leukemia
[37] = system: DU-145 prostate
[38] = system: RXF 393 renal
[39] = system: M14 melanoma
[40] = system: SK-OV-3 ovarian
[41] = system: KM12 colon
[42] = system: HS 578T breast
[43] = system: NCI-H23 lung
[44] = system: LOX IMVI melanoma
[45] = system: NCI/ADR-RES ovarian
[46] = system: HL-60(TB) leukemia
[47] = system: OVCAR-5 ovarian
[48] = system: HOP-62 NSCLC
[49] = system: SNB-75 CNS
[50] = system: OVCAR-8 ovarian
[51] = system: MDA-MB-435
[52] = system: EKVX NSCLC
[53] = system: TK-10 renal

Which results are given for `O=C(OCCOCCO)N(c1cccc(Br)c1)c1nc(SCCN2CCOCC2)nc2c1cnn2CC(Cl)c1ccc(Br)cc1` (stereo unspecified)?
GI50 [1]: 8.25 µM; TGI [1]: > 100 µM; GI50 [2]: 3.71 µM; TGI [2]: > 100 µM; GI50 [3]: 5 µM; TGI [3]: > 100 µM; GI50 [4]: 10.5 µM; TGI [4]: > 100 µM; GI50 [5]: 4.38 µM; TGI [5]: > 100 µM; GI50 [6]: 3.15 µM; TGI [6]: 13.1 µM; GI50 [7]: 9.17 µM; TGI [7]: 24.8 µM; GI50 [8]: 2.84 µM; TGI [8]: 10.1 µM; GI50 [9]: 3.15 µM; TGI [9]: > 100 µM; GI50 [10]: 2.73 µM; TGI [10]: > 100 µM; GI50 [11]: 4.91 µM; TGI [11]: > 100 µM; GI50 [12]: 3.05 µM; TGI [12]: > 100 µM; GI50 [13]: 4.57 µM; TGI [13]: > 100 µM; GI50 [14]: 6.39 µM; TGI [14]: > 100 µM; GI50 [15]: 4.82 µM; TGI [15]: > 100 µM; GI50 [16]: 3.33 µM; TGI [16]: 12.4 µM; GI50 [17]: 2 µM; TGI [17]: > 100 µM; GI50 [18]: 2.51 µM; TGI [18]: > 100 µM; GI50 [19]: 3.9 µM; TGI [19]: > 100 µM; GI50 [20]: 5.04 µM; TGI [20]: > 100 µM; GI50 [21]: 2.62 µM; TGI [21]: > 100 µM; GI50 [22]: 6.68 µM; TGI [22]: 22.1 µM; GI50 [23]: 2.89 µM; TGI [23]: 12.1 µM; GI50 [24]: 2.47 µM; TGI [24]: 7.63 µM; GI50 [25]: 7.62 µM; TGI [25]: > 100 µM; GI50 [26]: 3.28 µM; TGI [26]: > 100 µM; GI50 [27]: 3.84 µM; TGI [27]: > 100 µM; GI50 [28]: > 100 µM; TGI [28]: > 100 µM; GI50 [29]: 3.17 µM; TGI [29]: 17.8 µM; GI50 [30]: 5.63 µM; TGI [30]: > 100 µM; GI50 [31]: 1.99 µM; TGI [31]: 4.43 µM; GI50 [32]: 3.35 µM; TGI [32]: 18 µM; GI50 [33]: 5.54 µM; TGI [33]: > 100 µM; GI50 [34]: 10.1 µM; TGI [34]: 70.7 µM; GI50 [35]: 3.77 µM; TGI [35]: > 100 µM; GI50 [36]: 2.31 µM; TGI [36]: 6.51 µM; GI50 [37]: 9.88 µM; TGI [37]: > 100 µM; GI50 [38]: 1.78 µM; TGI [38]: 5.05 µM; GI50 [39]: 3.67 µM; TGI [39]: > 100 µM; GI50 [40]: 5.21 µM; TGI [40]: > 100 µM; GI50 [41]: 3.88 µM; TGI [41]: > 100 µM; GI50 [42]: 3.59 µM; TGI [42]: > 100 µM; GI50 [43]: 3.27 µM; TGI [43]: 15 µM; GI50 [44]: 1.72 µM; TGI [44]: 3.21 µM; GI50 [45]: 3.52 µM; TGI [45]: > 100 µM; GI50 [46]: 2.36 µM; TGI [46]: 6.25 µM; GI50 [47]: 5.15 µM; TGI [47]: > 100 µM; GI50 [48]: 4.41 µM; TGI [48]: > 100 µM; GI50 [49]: 3.34 µM; TGI [49]: > 100 µM; GI50 [50]: 6.93 µM; TGI [50]: > 100 µM; GI50 [51]: 3.83 µM; TGI [51]: > 100 µM; GI50 [52]: 5.55 µM; TGI [52]: > 100 µM; GI50 [53]: 93.4 µM; TGI [53]: > 100 µM
